system: NF-kB transcriptional activity in HEK-293-NF-kB-Luc cell line overexpressing MALT1; experiment: NF-kB reporter assay (luciferase, MALT1 stably overexpressed); assay type: cell-based; conditions: Homo sapiens, 24 h, HEK-293-NF-kB-Luc cells stably overexpressing MALT1, 24 h treatment, Bright Glo luminescence; read-out: NF-kB inhibition IC50
Method: The NF-⇐B reporter assay was performed to screen for MALT1 inhibition mediated reduction in the NF-⇐B transcriptional activity. For this purpose, MALT1 was stably overexpressed in HEK-293—NF-⇐B-Luc cell line. Cells were seeded in poly-D-lysine coated 96-well plates in a culture medium containing the selection markers (DMEM+10% FBS+50 |g/ml Hygromycin+500 |g/ml Geniticin) and allowed to adhere overnight. On the following day, cells were treated with various concentrations of test compounds for 24 h. After 24 h of treatment with test compounds, media was removed from each well and Bright Glo™ (Promega, USA) substrate was added and incubated for further 10 min at ambient temperature. Luminescence was measured for detection of NF-⇐B reporter activity. RLUs (Relative Luminescence Units) were directly proportional to the NF-⇐B activity. % inhibition of NF-⇐B activity was calculated relative to the samples containing media with 0.1% DMSO alone as per the following formula

`CCOC(C)c1c(NC(=O)Nc2ccc(-n3nccn3)c(Cl)c2)cnc2sc(C)nc12` (racemic) [Compound 161, 1-(3-Chloro-4-(2H-1,2,3-triazol-2-yl)phenyl)-3-(7-(1-ethoxyethyl)-2-methylthiazolo[5,4-b]pyridin-6-yl)urea] and `COC(C)c1c(NC(=O)Nc2ccc(-n3nccn3)c(C(F)F)c2)cnc2sc(C)nc12` (single isomer, unassigned) [Compound 207a, (R) or (S)-1-(3-(Difluoromethyl)-4-(2H-1,2,3-triazol-2-yl)phenyl)-3-(7-(1-methoxyethyl)-2-methylthiazolo[5,4-b]pyridin-6-yl)urea] fall in the same range of IC50: 1 to 100 nM for the first, 1 to 100 nM for the second.

`COc1nc(-n2ccnn2)c(Cl)cc1NC(=O)Nc1cnc2sc(C)nc2c1C(C)OC` (single isomer, unassigned) [Compound 91a, 1-(5-Chloro-2-methoxy-6-(1H-1,2,3-triazol-1-yl)pyridin-3-yl)-3-(7-(1-methoxyethyl)-2-methylthiazolo[5,4-b]pyridin-6-yl)urea] and `COc1cc(-n2ccnn2)c(Cl)cc1NC(=O)Nc1cnc2sc(C)nc2c1C(C)OC` (single isomer, unassigned) [Compound 132b, 1-(5-Chloro-2-methoxy-4-(1H-1,2,3-triazol-1-yl)phenyl)-3-(7-(1-methoxyethyl)-2-methylthiazolo[5,4-b]pyridin-6-yl)urea] fall in the same range of IC50: 1 to 100 nM for the first, 1 to 100 nM for the second.

`COC(C)(c1c(NC(=O)Nc2cnc(-n3nccn3)c(C(F)(F)F)c2)cnc2sc(C)nc12)C1CC1` (single isomer, unassigned) [Compound 93a, 1-(6-(2H-1,2,3-triazol-2-yl)-5-(trifluoromethyl)pyridin-3-yl)-3-(7-(1-cyclopropyl-1-methoxyethyl)-2-methylthiazolo[5,4-b]pyridin-6-yl)urea] and `CCC(OC)c1c(NC(=O)Nc2cnc(-n3nccn3)c(C(F)(F)F)c2)cnc2sc(C)nc12` (single isomer, unassigned) [Compound 146a, 1-(6-(2H-1,2,3-Triazol-2-yl)-5-(trifluoromethyl)pyridin-3-yl)-3-(7-(1-methoxypropyl)-2-methylthiazolo[5,4-b]pyridin-6-yl)urea] fall in the same range of IC50: 1 to 100 nM for the first, 1 to 100 nM for the second.

Compared with `COc1ccc(NC(=O)Nc2cnc3sc(C)nc3c2C(C)OC)cc1Cl` (single isomer, unassigned) [Compound 118b, 1-(3-chloro-4-methoxyphenyl)-3-(7-(1-methoxyethyl)-2-methylthiazolo[5,4-b]pyridin-6-yl)urea], `COc1ncc(Cl)cc1NC(=O)Nc1cnc2sc(C)nc2c1C(C)OC` (single isomer, unassigned) [Compound 120b, 1-(5-chloro-2-methoxypyridin-3-yl)-3-(7-(1-methoxyethyl)-2-methylthiazolo[5,4-b]pyridin-6-yl)urea] is lower in IC50: 101 to 500 nM for the first, 1 to 100 nM for the second. The second is the more potent here.

`COC(C)c1c(NC(=O)Nc2cnc(-n3ccnn3)c(Cl)c2)cnc2sc(C)nc12` (single isomer, unassigned) [Compound 123b, 1-(5-Chloro-6-(1H-1,2,3-triazol-1-yl)pyridin-3-yl)-3-(7-(1-methoxyethyl)-2-methylthiazolo[5,4-b]pyridin-6-yl)urea] and `COC(C)c1c(NC(=O)Nc2cnc(-n3ccnn3)c(C(F)(F)F)c2)cnc2sc(C)nc12` (single isomer, unassigned) [Compound 141a, 1-(6-(1H-1,2,3-Triazol-1-yl)-5-(trifluoromethyl)pyridin-3-yl)-3-(7-(1-methoxyethyl)-2-methylthiazolo[5,4-b]pyridin-6-yl)urea] fall in the same range of IC50: 1 to 100 nM for the first, 1 to 100 nM for the second.

`CCC(OC)c1c(NC(=O)Nc2cnc(OC)c(Cl)c2)cnc2sc(C)nc12` (single isomer, unassigned) [Compound 127a, 1-(5-Chloro-6-methoxypyridin-3-yl)-3-(7-(1-methoxypropyl)-2-methylthiazolo[5,4-b]pyridin-6-yl)urea] and `COC(C)c1c(NC(=O)Nc2cnc(OC(F)F)c(Cl)c2)cnc2sc(C)nc12` (single isomer, unassigned) [Compound 149a, 1-(5-Chloro-6-(difluoromethoxy)pyridin-3-yl)-3-(7-(1-methoxyethyl)-2-methylthiazolo[5,4-b]pyridin-6-yl)urea] fall in the same range of IC50: 1 to 100 nM for the first, 1 to 100 nM for the second.

`COC(C)c1c(NC(=O)Nc2cncc(C#N)c2)cnc2sc(C)nc12` (single isomer, unassigned) [Compound 129b, 1-(5-Cyanopyridin-3-yl)-3-(7-(1-methoxyethyl)-2-methylthiazolo[5,4-b]pyridin-6-yl)urea] and `COC(C)c1c(NC(=O)Nc2ccnc(C(F)(F)F)c2)cnc2sc(C)nc12` (single isomer, unassigned) [Compound 130b, 1-(7-(1-Methoxyethyl)-2-methylthiazolo[5,4-b]pyridin-6-yl)-3-(2-(trifluoromethyl)pyridin-4-yl)urea] fall in the same range of IC50: 1 to 100 nM for the first, 1 to 100 nM for the second.

Compared with `COC(C)c1c(NC(=O)Nc2cc(C(F)(F)F)cn(C)c2=O)cnc2sc(C)nc12` (single isomer, unassigned) [Compound 133b, 1-(7-(1-methoxyethyl)-2-methylthiazolo[5,4-b]pyridin-6-yl)-3-(1-methyl-2-oxo-5-(trifluoromethyl)-1,2-dihydropyridin-3-yl)urea], `COC(C)c1c(NC(=O)Nc2cnc(-c3ncc(C)o3)c(Cl)c2)cnc2sc(C)nc12` (single isomer, unassigned) [Compound 148b, 1-(5-Chloro-6-(5-methyloxazol-2-yl)pyridin-3-yl)-3-(7-(1-methoxyethyl)-2-methylthiazolo[5,4-b]pyridin-6-yl)urea] is lower in IC50: 501 to 1500 nM for the first, 1 to 100 nM for the second.

First: COc1ncc(NC(=O)Nc2cnc3sc(C)nc3c2C2CCCO2)cc1Cl (single isomer, unassigned) [Compound 135a, 1-(5-Chloro-6-methoxypyridin-3-yl)-3-(2-methyl-7-(tetrahydrofuran-2-yl)thiazolo[5,4-b]pyridin-6-yl)urea]
Second: COc1ncc(NC(=O)Nc2cnc3sc(C)nc3c2C2=CCOCC2)cc1Cl [Compound 58, 1-(5-Chloro-6-methoxypyridin-3-yl)-3-(7-(3,6-dihydro-2H-pyran-4-yl)-2-methylthiazolo[5,4-b]pyridin-6-yl)urea]
The IC50 of the first is lower: 1 to 100 nM for the first, 501 to 1500 nM for the second.

First: Cc1nc2c(C3CCCO3)c(NC(=O)Nc3ccc(-n4nccn4)c(Cl)c3)cnc2s1 (single isomer, unassigned) [Compound 137a, 1-(3-Chloro-4-(2H-1,2,3-triazol-2-yl)phenyl)-3-(2-methyl-7-(tetrahydrofuran-2-yl)thiazolo[5,4-b]pyridin-6-yl)urea]
Second: Cc1nc2c(C3CCCCO3)c(NC(=O)Nc3cnc(-n4nccn4)c(Cl)c3)cnc2s1 (single isomer, unassigned) [Compound 140b, 1-(5-Chloro-6-(2H-1,2,3-triazol-2-yl)pyridin-3-yl)-3-(2-methyl-7-(tetra hydro-2H-pyran-2-yl)thiazolo[5,4-b]pyridin-6-yl)urea]
The IC50 of the first is lower: 1 to 100 nM for the first, 101 to 500 nM for the second. The first is the more potent here.

`COC(c1c(NC(=O)Nc2cnc(-n3nccn3)c(Cl)c2)cnc2sc(C)nc12)C1CC1` (single isomer, unassigned) [Compound 154a, 1-(5-Chloro-6-(2H-1,2,3-triazol-2-yl)pyridin-3-yl)-3-(7-(cyclopropyl(methoxy)methyl)-2-methylthiazolo[5,4-b]pyridin-6-yl)urea] and `COc1nc(-n2nccn2)c(Cl)cc1NC(=O)Nc1cnc2sc(C)nc2c1C(OC)C1CC1` (single isomer, unassigned) [Compound 156a, 1-(5-Chloro-2-methoxy-6-(2H-1,2,3-triazol-2-yl)pyridin-3-yl)-3-(7-(cyclopropyl(methoxy)methyl)-2-methylthiazolo[5,4-b]pyridin-6-yl)urea] fall in the same range of IC50: 1 to 100 nM for the first, 1 to 100 nM for the second.

`CCC(C)c1c(NC(=O)Nc2cnc(-n3nccn3)c(Cl)c2)cnc2sc(C)nc12` (single isomer, unassigned) [Compound 157a, 1-(7-(sec-Butyl)-2-methylthiazolo[5,4-b]pyridin-6-yl)-3-(5-chloro-6-(2H-1,2,3-triazol-2-yl)pyridin-3-yl)urea] and `CCC(c1c(NC(=O)Nc2cnc(-n3nccn3)c(Cl)c2)cnc2sc(C)nc12)N(C)C` (single isomer, unassigned) [Compound 227b, 1-(5-Chloro-6-(2H-1,2,3-triazol-2-yl)pyridin-3-yl)-3-(7-(1-(dimethylamino)propyl)-2-methylthiazolo[5,4-b]pyridin-6-yl)urea] fall in the same range of IC50: 1 to 100 nM for the first, 1 to 100 nM for the second.

`CCOC(C)c1c(NC(=O)Nc2cc(Cl)c(-n3nccn3)nc2OC)cnc2sc(C)nc12` (single isomer, unassigned) [Compound 166b, 1-(5-Chloro-2-methoxy-6-(2H-1,2,3-triazol-2-yl)pyridin-3-yl)-3-(7-(1-ethoxyethyl)-2-methylthiazolo[5,4-b]pyridin-6-yl)urea] and `COCC(C)N(C)c1c(NC(=O)Nc2cnc(-n3nccn3)c(Cl)c2)cnc2sc(C)nc12` (stereo not shown) [Compound 53a, 1-(5-Chloro-6-(2H-1,2,3-triazol-2-yl)pyridin-3-yl)-3-(7-((1-methoxypropan-2-yl)(methyl)amino)-2-methylthiazolo[5,4-b]pyridin-6-yl)urea] fall in the same range of IC50: 1 to 100 nM for the first, 1 to 100 nM for the second.

First: COC(C)c1c(NC(=O)Nc2ccc(-c3ncccn3)c(Cl)c2)cnc2sc(C)nc12 (single isomer, unassigned) [Compound 202, (S) or (R)-1-(3-Chloro-4-(pyrimidin-2-yl)phenyl)-3-(7-(1-methoxyethyl)-2-methylthiazolo[5,4-b]pyridin-6-yl)urea]
Second: Cc1nc2c(C3CC3)c(NC(=O)Nc3ccnc(C#N)c3)cnc2s1 [Compound 12, 1-(2-Cyanopyridin-4-yl)-3-(7-cyclopropyl-2-methylthiazolo[5,4-b]pyridin-6-yl)urea]
The IC50 of the first is lower: 1 to 100 nM for the first, 501 to 1500 nM for the second.

Reference: patent US20190275012A9, “SUBSTITUTED THIAZOLO-PYRIDINE COMPOUNDS AS MALT1 INHIBITORS” (Lupin Limited, priority 2016, published 2019)
